In general, boiling point refers to the temperature at which the vapour pressure of the liquid equals the pressure above it. Usually melting point stands for the temperature, or range, at which the solid turns liquid.

Settings in the first data set: not given
Turning to `Clc1nnc(Cl)c2ccccc12`, the ready biodegradability result is on record as “not readily biodegradable”. In the case of `Nc1ccc(-c2ccccc2N)cc1`, the boiling point came to 363 °C and the melting point worked out at 54.5 °C. Molecule `CCC=NO` came in with a boiling point of 132 °C and a melting point of 40 °C. In turn, `CN(C)CCc1c[nH]c2cccc(O)c12` had a melting point of 174 °C.

Take `CCCCCCCCCCCCCCCCCC(=O)N(CCO)CCO`: the ready biodegradability entry is recorded as “readily biodegradable”. Molecule `CCC(=O)CC` yielded a boiling point of 102 °C, a log10 Henry constant (atm·m³/mol) of -4.3, a log10 Koa of 3.2 and a log10 vapour pressure (mmHg) of 1.58. Besides, the melting point was -39 °C and the ready biodegradability entry is listed as “readily biodegradable”. `Cc1ccc(Cl)c(Cl)c1Cl` yielded a boiling point of 244 °C and a melting point of 43.5 °C. Consider `COc1cccc(N)c1`, for which the boiling point was 251 °C, the log10 vapour pressure (mmHg) was -1.12, the melting point is -1 °C and the ready biodegradability entry is given as “not readily biodegradable”. As to `Oc1c(O)c(Br)c(Br)c(Br)c1Br`, the melting point was 191 °C.

As for `O=C(O)c1cccc(F)c1`, the melting point was 124 °C. In the case of `CC(C)=CC1C(C(=O)OCN2C(=O)C3=C(CCCC3)C2=O)C1(C)C` (stereo not drawn), the melting point worked out at 69 °C and the ready biodegradability result is recorded as “not readily biodegradable”. Turning to `COc1ccccc1OC(=O)c1ccccc1`, the melting point stood at 57.5 °C. Regarding `N=C(N)S(=O)O`, the ready biodegradability entry is on record as “readily biodegradable”. For the molecule `CCCCC(CC)CO` (stereo not drawn), the log10 vapour pressure (mmHg) is -0.867, the melting point was -70 °C and the ready biodegradability entry is “readily biodegradable”. For the molecule `Oc1c(Cl)cc(Cl)c(Cl)c1Cc1c(O)c(Cl)cc(Cl)c1Cl`, the boiling point is 479 °C, the melting point is 166 °C and the ready biodegradability entry is “not readily biodegradable”.

In turn, `Cc1cccc2c1cc(C)c1cccc(C)c12` came in with a log10 biodegradation half-life (days) of 1.92. Take `CCCCCCCCCc1ccc(OP(=O)(Oc2ccccc2)Oc2ccccc2)cc1`: the boiling point amounted to 471 °C, the log10 Henry constant (atm·m³/mol) was -7.85 and the log10 Koc (L/kg) was 4.06. `O=[N+]([O-])c1ccc(O)c(F)c1` gave a melting point of 121 °C.

`CCCCCCCCCCCCCCCC(N)=O`: the melting point turned out to be 107 °C and the ready biodegradability result was “not readily biodegradable”. `O=C1OC(=O)c2c(I)c(I)c(I)c(I)c21`: the melting point is 328 °C. Consider `CSCc1ccccc1`, for which the boiling point amounted to 210 °C and the melting point was -30 °C. In the case of `CC(=O)C(=O)CC(C)C`, the boiling point turned out to be 138 °C.

For `CC(/C=C\c1ccccc1)c1ccccc1` (stereo not drawn), the boiling point was determined as 311 °C and the melting point was 47.5 °C. With `NC(=O)/C=C/C(=O)[O-]`, the melting point is 172 °C.

The molecule `N#CC1(O)CCCCC1` displayed a melting point of 35 °C. The same measure, in the same setting: in the case of `N#Cc1ccccc1-c1ccccc1` it was 41 °C. `COc1ccc(C(C)=O)cc1OC` had a boiling point of 287 °C and a melting point of 51 °C.

Turning to `C[C@@H](N)C(C)(C)C`, the boiling point is 102 °C and the melting point was -20 °C. For the molecule `COc1ccccc1N1CCN(CCCC(=O)c2ccc(F)cc2)CC1`, the melting point is 68 °C. As for `Clc1cc(Cl)c2c(Cl)ccc(Cl)c2c1`, the log10 Koa stood at 8.28. For the molecule `Cc1ccc(N=Nc2ccccc2)cc1`, the boiling point stood at 312 °C and the melting point came to 71.5 °C. On to `CCCCS(=O)(=O)CCCC`, for which the boiling point was 291 °C and the melting point came to 45 °C.

On to `O=C(c1ccccc1)N1CCCCC1`, for which the boiling point worked out at 320 °C and the melting point amounted to 49 °C. `CCOc1cccc(Cl)c1` returned a boiling point of 207 °C. As for `Cc1cc2ccoc2cc1C`, the boiling point was found to be 221 °C. `c1ncncn1` showed a boiling point of 114 °C and a melting point of 86 °C. The molecule `O=C(O)c1cccc(-c2ccccc2)c1O` yielded a melting point of 186 °C. `O=C(O)c1ccnc(C(=O)O)c1`: the melting point was 249 °C and the ready biodegradability entry is listed as “readily biodegradable”. The molecule `C=CC#CCCC` displayed a boiling point of 110 °C. The same measure, in the same setting: in the case of `O=COCCOC=O` it was 174 °C.

In turn, `COc1c(C(C)(C)C)cc([N+](=O)[O-])c(C)c1[N+](=O)[O-]` had a melting point of 85 °C. `O=P(O)(O)c1ccccc1` returned a melting point of 164 °C. Regarding `CCOc1cc(OP(=S)(OC)OC)nc(CC)n1`, the log10 vapour pressure (mmHg) was -4.1 and the melting point is -3.35 °C. Molecule `Clc1ccc2c(Cl)c(Cl)c(Cl)c(Cl)c2c1` showed a log10 vapour pressure (mmHg) of -5.96. The molecule `CC1(C)OC[C@@H]2O[C@@]3(C(=O)O)OC(C)(C)O[C@H]3[C@@H]2O1` yielded a melting point of 74 °C.

For the molecule `C=CC(=O)OCCOC`, the ready biodegradability entry is recorded as “readily biodegradable”.

Molecule `Clc1ccc(-c2ccccc2Cl)cc1` came in with a log10 Henry constant (atm·m³/mol) of -3.64, a log10 Koa of 7.4, a log10 Koc (L/kg) of 4.34 and a log10 vapour pressure (mmHg) of -2.68. Molecule `FC(F)(F)c1ccc(Cl)c(Cl)c1` yielded a boiling point of 174 °C, a log10 vapour pressure (mmHg) of 0.372 and a melting point of -12.5 °C. Turning to `CC(C)CC(C)(C#N)N=NC(C)(C#N)CC(C)C` (stereo not drawn), the ready biodegradability entry was “not readily biodegradable”. In turn, `BrCCCCCCCCCCCCBr` gave a melting point of 41 °C. Molecule `CCCCCCCCCCCCCCCCC(=O)OC` yielded a melting point of 30 °C.

Molecule `COP(=S)(OC)Oc1nc(Cl)c(Cl)cc1Cl` displayed a log10 Koc (L/kg) of 3.52, a log10 vapour pressure (mmHg) of -4.38 and a melting point of 43 °C. Turning to `C=CC/C=C/C`, the boiling point was 65 °C, the log10 vapour pressure (mmHg) came out at 2.24 and the melting point is -139 °C. `CCC(Cl)(Cl)Cl` had a boiling point of 108 °C and a log10 vapour pressure (mmHg) of 1.5. Regarding `CCNc1cccc2ccccc12`, the boiling point was 305 °C and the ready biodegradability entry is given as “not readily biodegradable”. For the molecule `OCCCCCO`, the boiling point stood at 239 °C, the log10 vapour pressure (mmHg) is -2.41, the melting point is -18 °C and the ready biodegradability result is “readily biodegradable”.

The molecule `CC(C)CCCCC(C)C` had a boiling point of 160 °C and a melting point of -54.9 °C.

The molecule `CC(C)CCC(=O)O` came in with a boiling point of 200 °C and a melting point of -33 °C. Molecule `C=C(C)C1CC=C(C)C(=O)C1` (stereo not drawn) registered a boiling point of 230 °C.

`Fc1cc2c(cc1F)Oc1cc(Br)c(Br)cc1O2` displayed a log10 vapour pressure (mmHg) of -7.74 and a melting point of 210 °C. `Oc1ccc2ccccc2c1-c1c(O)ccc2ccccc12`: the melting point worked out at 216 °C. `NC(Cc1n[nH]c2ccccc12)C(=O)O` (stereo not drawn) returned a melting point of 240 °C.

As for `Sc1ccc(Br)cc1`, the boiling point was determined as 230 °C and the melting point is 73 °C.

In turn, `C=CCC(=C)C` had a boiling point of 56 °C. With `CC[C@@H](CO)NC(=O)[C@@H]1C=C2c3cccc4c3c(cn4C)C[C@H]2N(C)C1`, the melting point came to 195 °C. For the molecule `CC=C[C@H](O)CCCC`, the boiling point was 175 °C. With `CCCCCCCCCCCCCCCCCCCCCCCCCCCCCCCCCCCCC`, the boiling point came to 505 °C and the ready biodegradability entry was “readily biodegradable”. As for `O=C(O)c1ccccc1OP(=O)(O)O`, the melting point was determined as 169 °C.

The molecule `FC(F)(F)C(F)(F)C(F)(F)C(F)(F)C(F)(F)C(F)(F)C(F)(F)C(F)(F)C(F)(F)Br` had a boiling point of 159 °C. On the same count and under the same terms, the result for `CCC(CC)(CC)C(C)C` reads 172 °C. Turning to `CCCCCCCCCCCCCCCCCCCC(=O)OC`, the melting point is 54.5 °C. The molecule `CCCCCCCCC(=O)Cl` returned a boiling point of 215 °C and a melting point of -60.5 °C. As for `C/C=C/C(=O)N(CC)c1ccccc1C`, the ready biodegradability entry is reported as “not readily biodegradable”.

The data set is the same for the next values; noted with them: fish.
In turn, `Oc1c(Cl)cc(Cl)c(Cl)c1Cc1c(O)c(Cl)cc(Cl)c1Cl` registered a log10 BCF of 2.07. The molecule `Clc1cc(Cl)c(Oc2cc(Cl)c(Cl)c(Cl)c2Cl)cc1Cl` yielded a log10 biotransformation half-life (days) of 1.97. Molecule `FC(F)(F)c1ccc(Cl)c(Cl)c1` displayed a log10 BCF of 3.18 and a log10 biotransformation half-life (days) of 1.52. On the same counts, the results for `CCNc1cccc2ccccc12` are 2.32 and 0.43.

The values above are taken from the OPERA property sets (Mansouri et al. 2018).
